The text below walks through data of patent publication US12180226B2, “Spirotricycle RIPK1 inhibitors and methods of uses thereof” (Merck Sharp & Dohme LLC, priority 2021, dated 2024).

Molecules are shown by their SMILES. Where a name gives a salt, the structure may show the parent alone.

The target of this assay is RIPK1 (recombinant GST-RIPK1 kinase domain, residues 1-327) (Homo sapiens (Human), UniProt Q13546). As to the kind of experiment: RIPK1-ADP-Glo Enzymatic Assay. Conditions: ADP-Glo; 25 nM GST-RIPK1, 300 μM ATP; assay lower limit ~25 nM; read-out: RIPK1 V0 Ec50. The class given is biochemical. The procedure, abridged: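 Using dephosphorylated MBP (3 μM) as substrate and 300 μM ATP, 25 nM baculovirus-produced enzyme was reacted for 150 min after a 30-min compound pre-incubation. Luminescent ADP detection followed; lower confidence limit ~25 nM.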
RIPK1 (recombinant GST-RIPK1 kinase domain, residues 1-327), sequence (Q13546 1-327): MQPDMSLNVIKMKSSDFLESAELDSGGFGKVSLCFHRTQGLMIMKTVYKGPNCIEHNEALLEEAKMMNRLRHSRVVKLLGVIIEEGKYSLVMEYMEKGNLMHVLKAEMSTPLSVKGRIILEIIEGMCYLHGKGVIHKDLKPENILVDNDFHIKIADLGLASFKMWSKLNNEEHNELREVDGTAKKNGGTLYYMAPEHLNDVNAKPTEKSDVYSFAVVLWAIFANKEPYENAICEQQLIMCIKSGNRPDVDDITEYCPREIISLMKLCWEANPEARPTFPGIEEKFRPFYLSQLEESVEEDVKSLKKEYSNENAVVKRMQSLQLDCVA

For `N#Cc1ccnc(N2CCC3(CC2)O[C@@H]2CC[C@@H](c4cccc(F)c4)N2C3=O)c1` [Example 4.54, 2-[(5′S,7a′R)-5′-(3-fluorophenyl)-3′-oxotetrahydro-1H,3′H-spiro[piperidine-4,2′-pyrrolo[2,1-b] [1,3]oxazol]-1-yl]pyridine-4-carbonitrile], the half-maximal effective concentration (EC50) (as a rule, the concentration that produces a half-maximal response) worked out at 31.1 nM.
On to `O=C(c1ccoc1)N1CCC2(CC1)O[C@@H]1CC[C@@H](c3ccccc3)N1C2=O` [Example 6.145, (5′S,7a′R)-1-(furan-3-carbonyl)-5′-phenyl-tetrahydro-3′H-spiro [piperidine-4,2′-pyrrolo[2,1-b][1,3]oxazol]-3′-one], for which the concentration giving a half-maximal response (EC50) is < 25 nM.
The value for `N#Cc1cc(N2CCC3(O[C@@H]4CC[C@@H](c5ccccc5)N4C3=O)C(F)C2)ncn1` (single isomer, unassigned) [Example 4.95, 6-((3[S or R],4[R or S], 5′S,7a′R)-3-fluoro-3′-oxo-5′-phenyltetrahydro-3′H-spiro[piperidine-4,2′-pyrrolo[2,1-b]oxazol]-1-yl)pyrimidine-4-carbonitrile] was 58.3 nM.
With `O=C(c1cccc(F)c1)N1CCC2(CC1)O[C@@H]1CC[C@@H](c3cccc(F)c3)N1C2=O` [Example 6.116, (5′S,7a′R)-1-(3-fluoro-benzene-1-carbonyl)-5′-(3-fluorophenyl)-tetrahydro-3′H-spiro [piperidine-4,2′-pyrrolo[2,1-b][1,3]oxazol]-3′-one], the half-maximal effective concentration (EC50) is < 25 nM.
As for `C#Cc1ccc(N2CCC3(CC2)O[C@@H]2CC[C@@H](c4ccccc4)N2C3=O)n2ncnc12` [Example 21.24, (5′S,7a′R)-1-(8-ethynyl[1,2,4]triazolo [1,5-a]pyridin-5-yl)-5′-phenyltetrahydro-3′H-spiro[piperidine-4,2′-pyrrolo[2,1-b][1,3]oxazol]-3′-one], the EC50 was < 25 nM.
The value for `O=C1N2[C@@H](CC[C@H]2c2ccccc2)OC12CCN(c1ncc(-c3cscn3)cn1)CC2` [Example 21.13, (5′S,7a′R)-5′-phenyl-1-[5-(1,3-thiazol-4-yl)pyrimidin-2-yl]tetrahydro-3′H-spiro[piperidine-4,2′-pyrrolo[2,1-b][1,3]oxazol]-3′-one] was 40.3 nM; that for `O=C1N2[C@@H](CC[C@H]2c2cccc(F)c2)OC12CCN(c1cc(C(F)F)ncn1)CC2` [Example 4.52, (5′S,7a′R)-1-[6-(difluoromethyl)pyrimidin-4-yl]-5′-(3-fluorophenyl)tetrahydro-3′H-spiro[piperidine-4,2′-pyrrolo[2,1-b] [1,3]oxazol]-3′-one] was 69 nM; that for `O=C(c1ccc(F)cc1)N1CCC2(CC1)O[C@@H]1CC[C@@H](c3cc(F)cc(F)c3)N1C2=O` [Example 6.70, (5′S,7a′R)-5′-(3,5-difluorophenyl)-1-(4-fluorobenzene-1-carbonyl)tetrahydro-3′H-spiro[piperidine-4,2′-pyrrolo[2,1-b] [1,3]oxazol]-3′-one] was < 25 nM.
The value for `O=C1N2[C@@H](CC[C@H]2c2ccccc2)OC12CCN(c1ncnc3ccnn13)CC2F` (single isomer, unassigned) [Example 4.97, (3[R or S],4[S or R], 5′S,7a′R)-3-fluoro-5′-phenyl-1-(pyrazolo [1,5-a][1,3,5]triazin-4-yl)tetrahydro-3′H-spiro[piperidine-4,2′-pyrrolo[2,1-b]oxazol]-3′-one] was < 25 nM; that for `Cn1cccc1C(=O)N1CCC2(CC1)O[C@@H]1CC[C@@H](c3cc(F)cc(F)c3)N1C2=O` [Example 5.48, (5′S,7a′R)-5′-(3,5-difluoro-phenyl)-1-(1-methyl-1H-pyrrole-2-carbonyl)tetra-hydro-3′H-spiro[piperidine-4,2′-pyrrolo[2,1-b]oxazol]-3′-one] was 42.2 nM.
The figure for `O=C1N2[C@@H](CC[C@H]2c2cc(F)cc(F)c2)OC12CCN(c1nccn3cncc13)CC2` [Example 13.14, (5′S,7a′R)-5′-(3,5-difluorophenyl)-1-(imidazo[1,5-a]pyrazin-8-yl)tetrahydro-3′H-spiro[piperidine-4,2′-pyrrolo[2,1-b]oxazol]-3′-one, TFA salt] is 487 nM; for `O=C1N2[C@@H](CC[C@H]2c2ccccc2F)OC12CN(c1ccnc(-c3ccc(F)cc3)c1)C2` [Example 4.139, (5′S,7a′R)-5′-(2-fluorophenyl)-1-[2-(4-fluorophenyl)pyridin-4-yl]tetrahydro-3′H-spiro[azetidine-3,2′-pyrrolo[2,1-b] [1,3]oxazol]-3′-one] it is < 25 nM.
`N#Cc1cc(N2CCC3(CC2)C[C@@H]2OC[C@@H](c4ccccc4)N2C3=O)ncn1` [Example 4.113, 6-[(3′R,7a′S)-5′-oxo-3′-phenyltetrahydro-1H,5′H-spiro[piperidine-4,6′-pyrrolo[2,1-b] [1,3]oxazol]-1-yl]pyrimidine-4-carbonitrile]: the concentration giving a half-maximal response (EC50) was determined as 309 nM.
The figure for `N#Cc1ccc(N2CC3(C2)O[C@@H]2CC[C@@H](c4ccccc4)N2C3=O)c2ccnn12` [Example 13.21, 4-((5′S,7a′R)-3′-oxo-5′-phenyltetrahydro-3′H-spiro[azetidine-3,2′-pyrrolo[2,1-b]oxazol]-1-yl)pyrazolo[1,5-a]pyridine-7-carbonitrile, TFA salt] is 25.3 nM; for `O=C1N2[C@H](CC13CCN(c1cc(F)ccn1)CC3)OC[C@H]2c1ccccc1` [Example 11.2, (3′R,7a′S)-1-(4-fluoropyridin-2-yl)-3′-phenyltetrahydro-5′H-spiro[piperidine-4,6′-pyrrolo[2,1-b][1,3]oxazol]-5′-one] it is 295 nM.
The value for `O=C1N2[C@@H](CC[C@H]2c2ccccc2)OC12CCN(c1cc(-n3cccn3)ncn1)CC2` [Example 4.174, (5′S,7a′R)-5′-phenyl-1-[6-(1H-pyrazol-1-yl)pyrimidin-4-yl]tetrahydro-3′H-spiro[piperidine-4,2′-pyrrolo[2,1-b] [1,3]oxazol]-3′-one] was < 25 nM; that for `COc1ccc(F)c(C(=O)N2CCC3(CC2)O[C@@H]2CC[C@@H](c4cc(F)cc(F)c4)N2C3=O)c1` [Example 6.6, (5′S,7a′R)-5′-(3,5-difluorophenyl)-1-(2-fluoro-5-methoxy-benzene-1-carbonyl) tetrahydro-3′H-spiro [piperidine-4,2′-pyrrolo[2,1-b][1,3]oxazol]-3′-one] was < 25 nM; that for `O=C1N2[C@@H](CC[C@H]2c2ccccc2)OC12CCN(c1ncccc1C(F)F)CC2` [Example 11.24, (5′S,7a′R)-1-[3-(difluoromethyl)pyridin-2-yl]-5′-phenyltetrahydro-3′H-spiro[piperidine-4,2′-pyrrolo[2,1-b][1,3]oxazol]-3′-one] was 366 nM.
In the case of `O=C1N2[C@@H](CC[C@H]2c2cc(F)cc(F)c2)OC12CCN(c1cccc3ncnn13)CC2` [Example 13.2, (5′S,7a′R)-1-([1,2,4]triazolo[1,5-a]pyridin-5-yl)-5′-(3,5-difluorophenyl)tetrahydro-3′H-spiro[piperidine-4,2′-pyrrolo[2,1-b]oxazol]-3′-one, TFA salt], the concentration giving a half-maximal response (EC50) is < 25 nM.
Turning to `O=C1N2[C@@H](CC[C@H]2c2ccccc2)OC12CCN(c1cccn3nccc13)CC2` [Example 4.150, (5′S,7a′R)-5′-phenyl-1-(pyrazolo[1,5-a]pyridin-4-yl)tetrahydro-3′H-spiro[piperidine-4,2′-pyrrolo[2,1-b] [1,3]oxazol]-3′-one], the EC50 stood at 34.4 nM.
The value for `COc1ccnc(N2CCC3(CC2)O[C@@H]2CC[C@@H](c4cc(F)cc(F)c4)N2C3=O)n1` [Example 4.10, (5′S,7a′R)-5′-(3,5-difluorophenyl)-1-(4-methoxypyrimidin-2-yl)tetrahydro-3′H-spiro[piperidine-4,2′-pyrrolo[2,1-b] [1,3]oxazol]-3′-one] was 35.5 nM; that for `C#Cc1cccc(C(=O)N2CCC3(CC2)O[C@@H]2CC[C@@H](c4cccc(F)c4)N2C3=O)c1` [Example 6.123, (5′S,7a′R)-1-(3-ethynylbenzene-1-carbonyl)-5′-(3-fluoro-phenyl)tetrahydro-3′H-spiro[piperidine-4,2′-pyrrolo[2,1-b][1,3]oxazol]-3-one] was < 25 nM.
For the compound `O=C(c1ccccc1Cl)N1CCC2(CC1)O[C@@H]1CC[C@@H](c3cc(F)cc(F)c3)N1C2=O` [Example 6.78, (5′S,7a′R)-1-(2-chloro-benzene-1-carbonyl)-5′-(3,5-difluorophen-yl)tetrahydro-3′H-spiro[piperidine-4,2′-pyrrolo[2,1-b][1,3]-oxazol]-3′-one], the concentration for a half-maximal effect (EC50) amounted to 36.9 nM.
With `COc1ccc(N2CCC3(CC2)O[C@@H]2CC[C@@H](c4ccccc4)N2C3=O)nc1OC` [Example 11.31, (5′S,7a′R)-1-(5,6-dimethoxypyridin-2-yl)-5′-phenyltetrahydro-3′H-spiro[piperidine-4,2′-pyrrolo[2,1-b][1,3]oxazol]-3′-one], the EC50 is < 25 nM.
The value for `O=C1N2[C@@H](CC[C@H]2c2ccccc2)OC12CCN(c1ncnc3c1CCO3)CC2` [Example 4.217, (5′S,7a′R)-1-(5,6-dihydrofuro[2,3-d]pyrimidin-4-yl)-5′-phenyltetrahydro-3′H-spiro[piperidine-4,2′-pyrrolo[2,1-b] [1,3]oxazol]-3′-one] was 25.8 nM.
The value for `Cc1nc2sccn2c1C(=O)N1CCC2(CC1)O[C@@H]1CC[C@@H](c3cc(F)cc(F)c3)N1C2=O` [Example 6.43, (5′S,7a′R)-5′-(3,5-difluorophenyl)-1-(6-methylimidazo[2,1-b][1,3]thiazole-5-carbonyl)tetrahydro-3′H-spiro[piperidine-4,2′-pyrrolo[2,1-b] [1,3]oxazol]-3′-one] was 151 nM; that for `O=C1N2[C@@H](CC[C@H]2c2cccc(F)c2)OC12CCN(c1cc(-c3ccccc3)ncn1)CC2` [Example 4.125, (5′S,7a′R)-5′-(3-fluorophenyl)-1-(6-phenylpyrimidin-4-yl)tetrahydro-3′H-spiro[piperidine-4,2′-pyrrolo[2,1-b] [1,3]oxazol]-3′-one] was < 25 nM.
